From ChEMBL document CHEMBL1201862, “PubChem BioAssay data set” (2004) come the findings set out here.

Activity calls are given as the source filed them.

Assay [1] addresses T1, Alkaline phosphatase, tissue-nonspecific isozyme (Homo sapiens, UniProt P05186).
T1 sequence (P05186 whole entry): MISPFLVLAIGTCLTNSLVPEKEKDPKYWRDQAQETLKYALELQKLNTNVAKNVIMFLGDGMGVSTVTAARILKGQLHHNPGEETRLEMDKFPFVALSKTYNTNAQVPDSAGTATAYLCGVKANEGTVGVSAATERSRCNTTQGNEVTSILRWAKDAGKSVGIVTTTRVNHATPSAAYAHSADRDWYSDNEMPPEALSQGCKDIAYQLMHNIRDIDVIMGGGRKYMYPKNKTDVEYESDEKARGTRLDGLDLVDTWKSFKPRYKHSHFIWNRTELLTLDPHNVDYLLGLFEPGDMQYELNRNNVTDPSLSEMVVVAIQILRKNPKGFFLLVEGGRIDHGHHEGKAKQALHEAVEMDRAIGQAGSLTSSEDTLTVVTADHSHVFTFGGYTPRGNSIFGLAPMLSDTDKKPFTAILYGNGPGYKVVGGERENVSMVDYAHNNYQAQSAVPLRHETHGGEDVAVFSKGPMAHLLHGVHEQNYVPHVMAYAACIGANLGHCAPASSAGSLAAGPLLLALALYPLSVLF
Description: potency against alkaline phosphatase TNAP – biochemical, luminescent, dose response, SAR follow-up (AID 1056).

Assay [2] deals with Glyceraldehyde-3-phosphate dehydrogenase (Homo sapiens, UniProt P04406).
Assay [3] concerns the target T2, Calpain-2 catalytic subunit (Sus scrofa, UniProt P43367).
T2 sequence (P43367 whole entry): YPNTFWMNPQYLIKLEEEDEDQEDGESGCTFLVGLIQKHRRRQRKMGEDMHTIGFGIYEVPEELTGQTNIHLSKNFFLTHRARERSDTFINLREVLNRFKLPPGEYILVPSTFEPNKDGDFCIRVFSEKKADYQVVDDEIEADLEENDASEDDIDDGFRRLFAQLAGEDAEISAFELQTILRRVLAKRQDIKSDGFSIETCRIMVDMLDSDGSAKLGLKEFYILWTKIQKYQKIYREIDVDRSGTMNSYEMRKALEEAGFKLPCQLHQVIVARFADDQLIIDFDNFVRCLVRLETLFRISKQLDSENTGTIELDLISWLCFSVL
Description: m-calpain protease blockers, concentration series – biochemical, fluorogenic peptide substrate, dose response (AID 1420). The assay is classed as functional.

Assay [4] concerns the target Eukaryotic translation initiation factor 4E (Mus musculus, UniProt P63073). Put plainly: blockers of eIF4G binding by eIF4E – biochemical, TR-FRET, dose response (AID 855).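 Also: potency for disrupting eIF4E binding to eIF4GI seen as loss of FRET.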 The assay is classed as functional.
The target in assay [5] is T3, Tyrosine-protein phosphatase non-receptor type 22 (Homo sapiens, UniProt Q9Y2R2).
T3 sequence (Q9Y2R2 whole entry): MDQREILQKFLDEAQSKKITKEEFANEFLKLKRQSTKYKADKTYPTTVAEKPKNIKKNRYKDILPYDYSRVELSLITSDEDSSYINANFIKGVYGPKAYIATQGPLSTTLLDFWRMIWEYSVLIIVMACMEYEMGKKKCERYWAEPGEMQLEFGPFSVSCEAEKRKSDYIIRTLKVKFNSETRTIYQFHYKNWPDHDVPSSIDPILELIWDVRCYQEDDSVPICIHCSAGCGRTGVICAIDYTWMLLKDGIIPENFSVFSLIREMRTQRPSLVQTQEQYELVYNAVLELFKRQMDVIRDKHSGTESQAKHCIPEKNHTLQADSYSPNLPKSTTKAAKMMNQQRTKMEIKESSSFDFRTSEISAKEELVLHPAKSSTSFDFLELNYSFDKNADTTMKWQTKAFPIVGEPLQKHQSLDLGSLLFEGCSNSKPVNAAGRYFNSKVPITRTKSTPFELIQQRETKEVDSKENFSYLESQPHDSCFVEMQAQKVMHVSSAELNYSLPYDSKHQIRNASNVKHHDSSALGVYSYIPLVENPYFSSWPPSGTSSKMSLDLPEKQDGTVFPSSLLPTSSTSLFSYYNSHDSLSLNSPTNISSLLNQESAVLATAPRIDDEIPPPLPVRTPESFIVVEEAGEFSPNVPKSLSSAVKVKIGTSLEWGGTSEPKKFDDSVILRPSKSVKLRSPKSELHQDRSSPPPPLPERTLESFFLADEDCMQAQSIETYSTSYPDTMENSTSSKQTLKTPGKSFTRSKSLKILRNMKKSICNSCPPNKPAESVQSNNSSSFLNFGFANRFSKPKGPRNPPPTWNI
The assay is classed as functional.

For assay [6], the target named is T4, Tyrosine-protein phosphatase non-receptor type 7 (Homo sapiens, UniProt P35236).
T4 sequence (P35236 whole entry): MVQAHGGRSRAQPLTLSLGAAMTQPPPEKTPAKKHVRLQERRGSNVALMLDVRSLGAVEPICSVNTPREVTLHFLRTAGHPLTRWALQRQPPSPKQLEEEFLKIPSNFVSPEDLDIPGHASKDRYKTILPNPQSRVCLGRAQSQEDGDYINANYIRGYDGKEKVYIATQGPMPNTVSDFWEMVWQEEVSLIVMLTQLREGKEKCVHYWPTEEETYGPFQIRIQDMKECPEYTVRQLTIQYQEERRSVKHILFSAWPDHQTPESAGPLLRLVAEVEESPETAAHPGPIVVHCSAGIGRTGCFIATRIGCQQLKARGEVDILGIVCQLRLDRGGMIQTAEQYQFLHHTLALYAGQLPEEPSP
The assay is classed as functional.

The target of assay [7] is T3, Tyrosine-protein phosphatase non-receptor type 22. The assay is classed as functional. The source holds these as a separate data set.
For assay [8], the target named is T5, Replicative DNA helicase DnaB (Mycobacterium tuberculosis, UniProt P9WMR3).
T5 sequence (P9WMR3 whole entry): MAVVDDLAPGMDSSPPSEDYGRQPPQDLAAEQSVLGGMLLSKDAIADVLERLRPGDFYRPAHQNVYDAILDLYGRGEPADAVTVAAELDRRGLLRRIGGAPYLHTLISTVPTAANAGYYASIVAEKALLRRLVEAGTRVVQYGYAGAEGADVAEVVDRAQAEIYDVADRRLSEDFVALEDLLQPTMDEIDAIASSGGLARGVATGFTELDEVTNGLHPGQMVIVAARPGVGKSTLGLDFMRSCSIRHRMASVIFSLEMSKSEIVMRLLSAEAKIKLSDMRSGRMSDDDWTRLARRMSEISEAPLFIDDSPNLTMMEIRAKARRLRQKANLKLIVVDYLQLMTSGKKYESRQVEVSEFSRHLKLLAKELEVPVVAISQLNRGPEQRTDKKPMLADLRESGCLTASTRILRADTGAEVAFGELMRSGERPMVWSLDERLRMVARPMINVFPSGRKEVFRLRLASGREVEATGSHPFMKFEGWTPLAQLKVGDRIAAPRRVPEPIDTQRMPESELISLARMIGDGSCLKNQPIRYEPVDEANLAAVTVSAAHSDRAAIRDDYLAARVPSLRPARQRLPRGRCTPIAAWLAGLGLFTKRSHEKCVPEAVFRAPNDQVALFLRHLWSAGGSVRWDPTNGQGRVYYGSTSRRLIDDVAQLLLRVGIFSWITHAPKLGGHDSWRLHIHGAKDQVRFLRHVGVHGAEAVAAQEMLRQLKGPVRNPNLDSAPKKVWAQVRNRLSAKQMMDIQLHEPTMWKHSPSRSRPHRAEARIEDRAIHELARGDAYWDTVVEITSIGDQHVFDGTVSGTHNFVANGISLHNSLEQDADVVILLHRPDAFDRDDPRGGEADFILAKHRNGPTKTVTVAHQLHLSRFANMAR
Description: DnaB intein splicing inhibitors, dose response, biochemical, cell-free fluorescence (AID 449749). The assay is classed as functional.

Assay [9] is described as follows: cells. The assay is classed as functional.
Assay [10] in a line: Vero E6 cell cytotoxicity, dose response, cytotoxicity control for non-replicating M. tuberculosis project, secondary assay (AID 492998). The note with it: Vero C1008. The assay is classed as functional, VeroE6.
Assay [11] in a line: THP-1 cell cytotoxicity, dose response, cytotoxicity control for non-replicating M. tuberculosis project (AID 489025). The assay is classed as functional.
Assay [12] concerns the target T6, Protein RecA (Mycobacterium tuberculosis, UniProt P9WHJ3).
T6 sequence (P9WHJ3 whole entry): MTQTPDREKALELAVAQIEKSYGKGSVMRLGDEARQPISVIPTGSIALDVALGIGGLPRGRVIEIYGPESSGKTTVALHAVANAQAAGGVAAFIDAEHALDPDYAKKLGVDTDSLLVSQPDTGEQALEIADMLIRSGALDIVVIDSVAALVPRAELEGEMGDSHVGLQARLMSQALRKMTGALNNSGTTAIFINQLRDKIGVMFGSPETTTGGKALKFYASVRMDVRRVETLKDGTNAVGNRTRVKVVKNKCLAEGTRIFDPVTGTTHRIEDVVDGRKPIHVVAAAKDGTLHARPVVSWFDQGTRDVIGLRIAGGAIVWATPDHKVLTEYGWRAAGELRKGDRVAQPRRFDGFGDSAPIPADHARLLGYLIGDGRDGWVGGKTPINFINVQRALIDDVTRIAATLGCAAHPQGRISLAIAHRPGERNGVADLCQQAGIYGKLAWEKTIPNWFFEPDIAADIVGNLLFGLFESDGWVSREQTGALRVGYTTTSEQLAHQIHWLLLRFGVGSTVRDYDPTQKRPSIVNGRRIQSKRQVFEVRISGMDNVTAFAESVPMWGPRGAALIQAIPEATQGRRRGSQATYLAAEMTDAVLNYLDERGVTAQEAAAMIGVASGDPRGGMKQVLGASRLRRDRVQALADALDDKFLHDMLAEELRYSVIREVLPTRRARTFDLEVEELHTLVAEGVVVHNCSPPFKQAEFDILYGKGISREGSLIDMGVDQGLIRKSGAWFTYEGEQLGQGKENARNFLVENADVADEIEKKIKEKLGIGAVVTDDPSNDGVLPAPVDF
Put plainly: Fluorescence Cell-Free Homogeneous Dose Retest to Identify Inhibitors of RecA-Intein Splicing Activity. [Related pubchem assays (depositor defined):AID2097, AID2223, AID489010, AID492950]. The assay is classed as functional.

Assay [13] is described as follows: HepG2 cell cytotoxicity, dose response, cytotoxicity control for non-replicating M. tuberculosis project (AID 489018). The assay is classed as functional. Conditions: Mycobacterium tuberculosis.
The subject of assay [14] is Vero. Description: cells. The assay is classed as functional, cell-based. Conditions: Chlorocebus sabaeus.
In assay [15] the test system is Vero. Put plainly: cells. The assay is classed as functional. The note with it: Chlorocebus sabaeus.
Assay [16] in a line: viability of uninfected HEp-2 cells – cell-based, HTS, cytotoxicity control for RSV inhibitor project, dose response (AID 2410). The assay is classed as functional. Conditions: human respiratory syncytial virus.

Sequence of Eukaryotic translation initiation factor 4E (P63073 whole entry): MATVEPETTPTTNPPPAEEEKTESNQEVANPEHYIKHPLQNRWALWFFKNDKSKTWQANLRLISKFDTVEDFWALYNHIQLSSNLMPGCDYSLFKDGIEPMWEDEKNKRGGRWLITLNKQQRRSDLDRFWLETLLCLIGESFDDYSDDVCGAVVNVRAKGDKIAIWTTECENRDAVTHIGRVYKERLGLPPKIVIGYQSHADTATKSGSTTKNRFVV
Sequence of Glyceraldehyde-3-phosphate dehydrogenase (P04406 whole entry): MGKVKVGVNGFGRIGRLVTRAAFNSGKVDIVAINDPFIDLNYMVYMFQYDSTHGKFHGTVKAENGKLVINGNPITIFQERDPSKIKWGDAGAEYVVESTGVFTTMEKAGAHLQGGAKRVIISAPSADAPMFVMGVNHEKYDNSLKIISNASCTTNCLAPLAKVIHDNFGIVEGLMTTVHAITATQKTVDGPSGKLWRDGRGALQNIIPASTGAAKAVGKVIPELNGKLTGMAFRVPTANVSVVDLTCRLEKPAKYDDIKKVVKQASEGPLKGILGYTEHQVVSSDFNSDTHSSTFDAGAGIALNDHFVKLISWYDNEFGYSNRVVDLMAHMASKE

With `CCCCOc1ccc(-c2cc(C(=O)OC)[nH]n2)cc1`, the IC50 in assay [1] was 912 nM (active); in assay [2], > 100 µM (not active).

As for `Fc1c(F)c(C(F)(F)F)c(F)c(F)c1N1CCN(c2ccc3nnc(C(F)(F)F)n3n2)CC1`, the figures for the IC50 in assay [3] and in assay [4] were 3.07 µM (not active) and > 64 µM (inactive), respectively.

On to `COc1ccccc1N1CCN(C(=O)C2CCN(C(=O)c3ccccc3Cl)CC2)CC1`, for which the IC50 in [5], in assay [6] and in [7] was > 79.4 µM (inactive) each time.

As for `Cc1ccc(N2C(=O)c3ccccc3C2(O)c2ncc[nH]2)cc1` (centres undefined), the IC50 in assay [4] is > 64 µM (inactive).

For the molecule `Cn1cnc([N+](=O)[O-])c1S(=O)(=O)c1cccc(Cl)c1`, the AC50 in assay [8] was 27.7 µM (active). The IC50 in assay [9] was 5.88 µM (active). Besides, the CC50 was 8.33 µM (active) in assay [10], 15.5 µM (active) in assay [11] and 13 µM (active) in [13]. Further, the EC50 in assay [12] is 15.8 µM (active).

As to `COC(=O)c1cc(-c2cc(F)c(F)cc2F)n[nH]1`, the IC50 in assay [1] is 1070 nM (active); in assay [2], > 10 µM (inconclusive).

As for `CC(C)CCNC(=O)c1ccc2c(Cl)c3c(nc2c1)CCC3`, the IC50 in [5], in assay [6] and in [7] was > 79.4 µM (inactive) in each case.

For `O=C(Cc1cccs1)N1CCN(c2ccc([N+](=O)[O-])cc2)CC1`, the IC50 in [5], in [6] and in [7] was > 79.4 µM (inactive) throughout.

In the case of `CCOc1ccccc1-c1cc(C(=O)N/N=C/c2ccc(O)c(OC)c2)c2ccccc2n1`, the IC50 in assay [5] was > 79.4 µM (inactive); in assay [14], > 25 µM (active); in assay [6], > 79.4 µM (inactive); in assay [7] it was > 79.4 µM (inactive). Further, the CC50 in assay [15] is > 25 µM (active); in [16] it was 26.7 µM (active).

Take `CCCCCCCCCC(=O)N/N=C/c1ccc(C)s1`: the IC50 in [4] was > 64 µM (inactive).

In general, IC50 refers to the concentration that gives 50% inhibition. As usually defined, the AC50 is the concentration at which the activity in the assay is half-maximal. As usually defined, the CC50 is the concentration at which the toxic effect on the cells reaches its halfway point. The EC50 is the concentration giving half of the maximal effect.
